Structures are written as SMILES. Where “and” joins values, the source holds several entries; their conditions need not be identical. Equal values may be shown once.

The test system of one test is Sprague-Dawley rats. The test is described as follows: CFA-induced paw radiant heat hypersensitivity. The format is in vivo. The following applies: rat, 30 mg/kg PO, 24 h after intraplantar CFA, radiant heat withdrawal latency. On the procedure: Intraplantar injection of complete Freund's adjuvant (CFA) in rodents results in a long-lasting inflammatory reaction, characterized by a pronounced hypersensitivity to both thermal and mechanical stimuli. This hypersensitivity peaks between 24-72 hours following injection and can last for several weeks. To assess whether test compounds of the formula (I) reverse established hypersensitivity, a 100 μL intraplantar injection of CFA (suspended in a 1:1 emulsion of saline and heat-killed Mycobacterium tuberculosis in mineral oil) can be injected into a single hind paw of Sprague-Dawley rats (typically males ranging from 150-350 g). […]
Each rat is placed in a test chamber on a warm glass surface and allowed to acclimate for approximately 10 minutes. […] An initial (baseline) response latency to the thermal stimulus is recorded for each animal prior to the injection of CFA. Twenty-four hours following intraplantar CFA injection, the response latency of the animal to the thermal stimulus is then re-evaluated and compared to the animal's baseline response time. […] Post-compound treatment withdrawal latencies are assessed at fixed time intervals, typically 30, 60 and 120 minutes. The percent reversal (% R) of hypersenstivitiy is calculated according to the following formula: % Reversal=(Treatment Response−CFA Response)/(Baseline Response−CFA Response)×100.

In a further test the target is T1, canine TRPM8 (Canis lupus familiaris, UniProt Q1A7N1).
T1 construct: expressed in transfected cells
The test is described as follows: In vitro canine TRPM8 functional assay (icilin-induced Ca2+ fluorescence, FLIPR/FDSS). Format: cell-based. On the procedure:
The functional activity of compounds of the formula (I) was determined by measuring changes in intracellular calcium concentration using a Ca^2+-sensitive fluorescent dye. The changes in fluorescent signal were monitored by a fluorescence plate reader, either a FLIPR™ (Molecular Devices) or FDSS (Hamamatsu).
HEK293 cells stably expressing canine TRPM8 were routinely grown as monolayers in Dulbecco's minimum essential medium supplemented with 10% FBS, 2 mM L-glutamine, 100 units/mL penicillin, 100 ug/mL streptomycin and 400 μg/mL G418. Cells were maintained in 5% CO2 at 37° C. At 24 hrs prior to assay, cells were seeded in black wall, clear-base poly-D-lysine coated 384-well plates (BD Biosciences, NJ, USA) at a density of 5,000 cells per well in culture medium and grown overnight in 5% CO2 at 37° C. On assay day, growth media was removed and cells were loaded with Calcium 3 Dye (Molecular Devices) for 35 min at 37° C., under 5% CO2 and then for 25 min at room temperature and atmosphere. Subsequently, cells were tested for agonist-induced increases in intracellular Ca^2+ levels using FLIPR™ or FDSS. Cells were challenged with compounds of the formula (I) (at varying concentrations) and intracellular Ca^2+ was measured for 5 min prior to the addition of icilin to all wells to achieve a final concentration that produces approximately an 80% maximal response.
Maximal fluorescence intensity (FI) achieved upon addition of icilin was exported from the FLIPR or FDSS software and further analyzed using GraphPad Prism 3.02 (Graph Pad Software Inc., CA, U.S.A.). Basal FI was subtracted prior to normalizing data to percent of maximal response. Curves were generated using the average of quadruplicate wells for each data point, were analyzed using nonlinear regression of either sigmoidal dose response or sigmoidal dose response (variable slope). Finally, the EC50 and IC50 values were calculated with the best-fit dose curve determined by GraphPad Prism.

T1 sequence (Q1A7N1 1-1104): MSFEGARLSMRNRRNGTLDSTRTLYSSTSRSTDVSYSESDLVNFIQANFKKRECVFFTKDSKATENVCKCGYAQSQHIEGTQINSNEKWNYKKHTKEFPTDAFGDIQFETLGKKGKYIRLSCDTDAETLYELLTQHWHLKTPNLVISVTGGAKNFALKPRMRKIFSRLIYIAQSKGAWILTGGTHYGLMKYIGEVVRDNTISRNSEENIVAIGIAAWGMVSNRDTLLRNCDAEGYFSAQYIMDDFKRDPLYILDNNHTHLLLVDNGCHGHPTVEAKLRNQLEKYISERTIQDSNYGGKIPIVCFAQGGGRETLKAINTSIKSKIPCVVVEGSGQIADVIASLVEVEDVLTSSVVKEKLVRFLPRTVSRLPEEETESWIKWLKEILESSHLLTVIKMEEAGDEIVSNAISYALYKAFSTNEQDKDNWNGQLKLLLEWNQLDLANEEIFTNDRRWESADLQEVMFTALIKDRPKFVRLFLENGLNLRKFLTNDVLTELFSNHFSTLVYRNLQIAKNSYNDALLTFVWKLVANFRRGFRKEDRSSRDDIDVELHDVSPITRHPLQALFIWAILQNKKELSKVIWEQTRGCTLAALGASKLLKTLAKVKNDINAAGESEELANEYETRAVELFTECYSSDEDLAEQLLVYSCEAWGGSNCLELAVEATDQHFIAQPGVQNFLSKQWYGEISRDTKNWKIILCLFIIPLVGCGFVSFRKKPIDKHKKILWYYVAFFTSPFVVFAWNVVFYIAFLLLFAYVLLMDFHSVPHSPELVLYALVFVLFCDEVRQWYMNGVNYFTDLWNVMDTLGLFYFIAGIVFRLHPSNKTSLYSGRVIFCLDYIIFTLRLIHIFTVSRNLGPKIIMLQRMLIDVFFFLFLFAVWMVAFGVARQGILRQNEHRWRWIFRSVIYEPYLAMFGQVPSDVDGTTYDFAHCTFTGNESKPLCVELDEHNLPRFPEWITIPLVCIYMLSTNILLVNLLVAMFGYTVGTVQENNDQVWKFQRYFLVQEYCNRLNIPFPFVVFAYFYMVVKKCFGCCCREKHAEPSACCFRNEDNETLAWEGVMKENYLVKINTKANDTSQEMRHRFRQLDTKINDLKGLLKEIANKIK

As to `O=C(Nc1cccc2cnccc12)C(Nc1ccccc1F)c1ccc(C(F)(F)F)cc1` (stereo not drawn) [Cpd 24, 2-(2-Fluorophenylamino)-N-(isoquinolin-5-yl)-2-(4-(trifluoromethyl)phenyl)acetamide], the “% Reversal @ 2 h” value in the test with Sprague-Dawley rats is 28%. Besides, the inhibition (usually the relative decrease from the control value, in per cent) at 0.5 µM on canine TRPM8 (HEK293, 0.5 μM compound, HEK293 canine TRPM8, icilin challenge) was 104%. Moreover, the IC50 (commonly the concentration that gives 50% inhibition) at canine TRPM8 (HEK293 cells stably expressing canine TRPM8, icilin at approx. 80% maximal response, eight-point dose-response) is 54.9 nM and 44.3 nM.
